Assay results as given in patent US7462600B2, “Macrolides” (Pfizer Inc, priority 2004, dated 2008).
≈ marks a conversion by molar mass, not a printed value.

Assays:
Assay type in all cases: cell-based
[1] = system: Streptococcus pyogenes 1079; assay: MIC, microtiter broth dilution (NCCLS M100-S14), S. pyogenes 1079 (ermB); details: Streptococcus pyogenes 1079
Outline: (§1)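 Stock solutions of 40 mg/ml in DMSO were used. MIC values came from microtiter-tray broth dilution following NCCLS M100-S14 guidelines.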

[2] = system: Streptococcus pneumoniae 1016; assay: MIC, microtiter broth dilution (NCCLS M100-S14), S. pneumoniae 1016 (susceptible); details: Streptococcus pneumoniae 1016
Outline: as §1

[3] = system: Streptococcus pneumoniae 1095; details: Streptococcus pneumoniae 1095; microtiter broth dilution
Outline: as §1

[4] = system: Streptococcus pneumoniae 1175; details: Streptococcus pneumoniae 1175; microtiter broth dilution
Outline: as §1

[5] = system: Haemophilus influenzae 1218; assay: MIC, microtiter broth dilution (NCCLS M100-S14), H. influenzae 1218 (susceptible); details: Haemophilus influenzae 1218
Outline: as §1

| Compound | MIC S. pyogenes 1079 [1] | MIC S. pneumo. 1016 [2] | MIC S. pneumo. 1095 [3] | MIC S. pneumo. 1175 [4] | MIC H. influenzae 1218 [5] |
| --- | --- | --- | --- | --- | --- |
| CCC1OC(=O)C(C)C(=O)C(C)C(OC2OC(C)CC(N(C)C)C2O)C(C)(OC)CC(C)C(=O)C(C)C2N(CC3CN(Cc4ccc5ncccc5c4)C3)C(=O)OC12C (stereo not drawn) [Example 4.14, 3-descladinosyl-11,12-dideoxy-6-O-methyl-3-oxo-12,11-(oxycarbonyl-(1-((quinolin-6-yl)-methyl)-(azetidin-3-yl)-methyl)-imino)-erythromycin A] | 8 mg/L (≈ 9.72 µM) | <0.06 mg/L | <0.06 mg/L | <0.06 mg/L | 0.5 mg/L (≈ 0.608 µM) |
| CCC1OC(=O)C(C)C(=O)C(C)C(OC2OC(C)CC(N(C)C)C2O)C(C)(OC)CC(C)C(=O)C(C)C2N(CC3CN(Cc4c[nH]c5ncccc45)C3)C(=O)OC12C (stereo not drawn) [Example 4.18, 3-descladinosyl-11,12-dideoxy-6-O-methyl-3-oxo-12,11-(oxycarbonyl-(1-((1H-pyrrolo[2,3-b]pyridin-3-yl)-methyl)-(azetidin-3-yl)-methyl)-imino)-erythromycin A] | 8 mg/L (≈ 9.85 µM) | <0.06 mg/L | 0.12 mg/L (≈ 0.148 µM) | 0.5 mg/L (≈ 0.616 µM) | 0.25 mg/L (≈ 0.308 µM) |
| CCC1OC(=O)C(C)C(=O)C(C)C(OC2OC(C)CC(N(C)C)C2O)C(C)(OC)CC(C)C(=O)C(C)C2N(CC3CN(Cc4c(C)ccc5nc[nH]c45)C3)C(=O)OC12C.O=CO (stereo not drawn) [Example 4.44, 3-descladinosyl-11,12-dideoxy-6-O-methyl-3-oxo-12,11-(oxycarbonyl-(1-((6-methyl-1H-benzo[d]imidazol-7-yl)-methyl)-(azetidin-3-yl)-methyl)-imino)-erythromycin A] | 8 mg/L | <0.06 mg/L | 0.5 mg/L | <0.06 mg/L | 0.25 mg/L |
| CC[C@H]1OC(=O)[C@H](C)[C@@H](OC(=O)N2CCCC2)[C@H](C)[C@@H](O[C@@H]2O[C@H](C)C[C@H](N(C)C)[C@H]2O)[C@](C)(OC)C[C@@H](C)C(=O)[C@H](C)[C@H]2N(CC3CN(C(=O)c4ccnc5ccccc45)C3)C(=O)O[C@]12C [Example 5.01, 2-R^2: quinoline-4-carboxyl; R^#: pyrrolidin-1-yl] | 64 mg/L (≈ 68.4 µM) | <0.06 mg/L | 0.5 mg/L (≈ 0.534 µM) | <0.06 mg/L | 2 mg/L (≈ 2.14 µM) |
| CC[C@H]1OC(=O)[C@H](C)[C@@H](OC(=O)N2CCCC2C)[C@H](C)[C@@H](O[C@@H]2O[C@H](C)C[C@H](N(C)C)[C@H]2O)[C@](C)(OC)C[C@@H](C)C(=O)[C@H](C)[C@H]2N(CC3CN(Cc4c[nH]c5ncccc45)C3)C(=O)O[C@]12C (stereo partly drawn) [Example 5.03, 3-descladinosyl-11,12-dideoxy-6-O-methyl-12,11-(oxycarbonyl-(1-((1H-pyrrolo[2,3-b]pyridin-3-yl)-methyl)-(azetidin-3-yl)-methyl)-imino)-3-((2-methylpyrrolidine)-1-carbonyl)-erythromycin A] | 0.5 mg/L (≈ 0.54 µM) | <0.06 mg/L | <0.06 mg/L | <0.06 mg/L | 2 mg/L (≈ 2.16 µM) |
| CC[C@H]1OC(=O)[C@H](C)[C@@H](OC(=O)N2CCCC2C)[C@H](C)[C@@H](O[C@@H]2O[C@H](C)C[C@H](N(C)C)[C@H]2O)[C@](C)(OC)C[C@@H](C)C(=O)[C@H](C)[C@H]2N(CC3CN(Cc4cccc5cccnc45)C3)C(=O)O[C@]12C (stereo partly drawn) [Example 5.04] | 4 mg/L (≈ 4.27 µM) | <0.06 mg/L | <0.06 mg/L | <0.06 mg/L | 1 mg/L (≈ 1.07 µM) |
